Reference: US11236084B2, “Substituted azaindoline derivatives as NIK inhibitors” (Janssen Pharmaceutica NV, priority 2017, dated 2022)
Read-outs that look alike come from different tables or passages of the source.

Molecular target: recombinant human NF-kappaB-inducing kinase (NIK/MAP3K14) (Homo sapiens, UniProt Q99558)
Assay: Biological Assay B: inhibition of auto-phosphorylation of recombinant human NIK/MAP3K14 (AlphaScreen), performed at 2 locations
Type: biochemical
Details: averaged values
Description: Inhibition of Auto-Phosphorylation of Recombinant Human NF-kappaB-Inducing Kinase (NIK/MAP3K14) Activity (AlphaScreen®)
NIK/MAP3K14 auto-phosphorylation activity was measured using the AlphaScreen® (αscreen) format (Perkin Elmer). All compounds tested were dissolved in dimethyl sulfoxide (DMSO) and further dilutions were made in assay buffer. Final DMSO concentration was 1% (v/v) in assays. Assay buffer was 50 mM Tris pH 7.5 containing 1 mM EGTA (ethylene glycol tetraacetic acid), 1 mM DTT (dithiothreitol), 0.1 mM Na3VO4, 5 mM MgCl2, 0.01% Tween® 20. Assays were carried out in 384 well Alphaplates (Perkin Elmer). Incubations consisted of compound, 25 microM Adenosine-5′-triphosphate (ATP), and 0.2 nM NIK/MAP3K14. Incubations were initiated by addition of GST-tagged NIK/MAP3K14 enzyme, carried out for 1 h at 25° C. and terminated by addition of stop buffer containing anti-phospho-IKK Ser176/180 antibody. Protein A Acceptor and Glutathione-Donor beads were added before reading using an EnVision® Multilabel Plate Reader (Perkin Elmer). Signal obtained in the wells containing blank samples was subtracted from all other wells and IC50's were determined by fitting a sigmoidal curve to % inhibition of control versus Log10 compound concentration.
Assay B was performed at 2 different locations.
Data for the compounds of the invention in the above assays are provided in Table A (the values in Table are averaged values over all measurements on all batches of a compound; values as IC50 (nM)). (‘n.c.’ means not calculated: ‘Co.’ means compound)

[1] = location 2, AlphaScreen auto-phosphorylation, read-out: Assay B location 2 IC50
[2] = location 1, AlphaScreen auto-phosphorylation, read-out: Assay B location 1 IC50
[3] = location 1, NIK auto-phosphorylation, AlphaScreen, read-out: Assay B location 1 IC50

Sequence of recombinant human NF-kappaB-inducing kinase (NIK/MAP3K14) (Q99558 whole entry): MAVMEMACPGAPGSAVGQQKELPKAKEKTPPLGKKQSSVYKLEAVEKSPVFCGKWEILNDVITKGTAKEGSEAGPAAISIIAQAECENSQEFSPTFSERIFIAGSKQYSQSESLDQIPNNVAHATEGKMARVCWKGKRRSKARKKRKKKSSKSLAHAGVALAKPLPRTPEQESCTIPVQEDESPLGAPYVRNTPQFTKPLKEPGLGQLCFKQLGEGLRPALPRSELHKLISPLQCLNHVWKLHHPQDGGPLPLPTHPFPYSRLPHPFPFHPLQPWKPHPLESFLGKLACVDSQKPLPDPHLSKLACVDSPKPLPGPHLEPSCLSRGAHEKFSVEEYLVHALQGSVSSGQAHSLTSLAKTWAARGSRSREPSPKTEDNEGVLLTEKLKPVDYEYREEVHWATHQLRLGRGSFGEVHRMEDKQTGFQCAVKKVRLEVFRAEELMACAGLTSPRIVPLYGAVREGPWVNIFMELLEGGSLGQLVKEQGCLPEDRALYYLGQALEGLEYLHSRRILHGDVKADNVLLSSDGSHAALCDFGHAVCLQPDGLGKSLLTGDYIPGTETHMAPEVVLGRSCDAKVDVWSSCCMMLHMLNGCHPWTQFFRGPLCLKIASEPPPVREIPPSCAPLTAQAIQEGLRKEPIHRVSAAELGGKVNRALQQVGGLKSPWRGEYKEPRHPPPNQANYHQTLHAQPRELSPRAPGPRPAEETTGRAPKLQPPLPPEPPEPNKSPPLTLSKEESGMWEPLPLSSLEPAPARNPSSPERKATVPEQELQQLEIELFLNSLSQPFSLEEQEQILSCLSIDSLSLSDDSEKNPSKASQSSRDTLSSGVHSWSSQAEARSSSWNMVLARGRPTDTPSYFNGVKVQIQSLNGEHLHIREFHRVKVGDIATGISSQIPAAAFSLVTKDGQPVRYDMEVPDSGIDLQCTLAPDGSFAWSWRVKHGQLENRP

IC50 [1] [µM] | IC50 [2] [µM] | IC50 [3] [µM] | Compound
0.0178 | – | – | COc1ccc(C#N)cc1Nc1nccc(-c2cnc3c(c2)C(C)(CO)CN3)n1 (single isomer, unassigned) [Compound 249]
0.006 | 0.0066 | – | Cc1cc(N2CCOCC2)c(C#N)cc1Nc1nccc(-c2cnc3c(c2)C(C)(CO)CN3)n1 (single isomer, unassigned) [Compound 264]
0.0019 | 0.005 | – | CC1(CO)CNc2ncc(-c3ccnc(Nc4cc(Cl)c(N5CCOCC5)cc4Cl)n3)cc21 (single isomer, unassigned) [Compound 266]
0.112 | 0.191 | – | COCCOc1cc(N2CCOCC2)c(F)cc1Nc1nccc(-c2cnc3c(c2)C(C)(CO)CN3)n1 (stereo not drawn) [Compound 368]
0.0022 | 0.01 | – | COc1cc(N2CC3(CCOCC3)C2)c(Cl)cc1Nc1nccc(-c2cnc3c(c2)C(C)(CO)CN3)n1 (stereo not drawn) [Compound 3]
0.0141 | – | – | CC1(CO)CNc2ncc(-c3ccnc(Nc4ccccc4Cl)n3)cc21 (stereo not drawn) [Compound 178]
0.004 | 0.0047 | – | COc1cc(N2CCOCC2)c(Cl)cc1Nc1nccc(-c2cnc3c(c2)C(C)(CO)CN3)n1 (stereo not drawn) [Compound 6]
0.0041 | 0.0074 | – | COc1cc(C#N)c(C)c(Nc2nccc(-c3cnc4c(c3)C(C)(CO)CN4)n2)c1 (stereo not drawn) [Compound 226]
0.0191 | – | – | CCc1ccccc1Nc1nccc(-c2cnc3c(c2)C(C)(CO)CN3)n1 (stereo not drawn) [Compound 167]
0.0363 | 0.055 | – | COc1cc(N2CCOCC2)c(C#N)cc1Nc1nccc(-c2cnc3c(c2)C(C)(CO)CN3)n1 (single isomer, unassigned) [Compound 4R]
0.0038 | 0.0036 | – | CC1(CO)CNc2ncc(-c3ccnc(Nc4cc(C#N)c(N5CCOCC5)cc4Cl)n3)cc21 (single isomer, unassigned) [Compound 259]
0.0407 | – | – | COc1cc(CN(C)C)ccc1Nc1nccc(-c2cnc3c(c2)C(C)(CO)CN3)n1 (stereo not drawn) [Compound 186]
0.0051 | – | – | CC1(CO)CNc2ncc(-c3ccnc(Nc4cc(C#N)ccc4Cl)n3)cc21 (stereo not drawn) [Compound 205]
0.0012 | 0.0053 | – | COc1cc(C(=O)N2CCC(OC)CC2)c(Cl)cc1Nc1nccc(-c2cnc3c(c2)C(C)(CO)CN3)n1 (stereo not drawn) [Compound 296]
0.0005 | 0.0014 | – | COc1cc(N2CCN(C)CC2)c(Cl)cc1Nc1nccc(-c2cnc3c(c2)C(C)(CO)CN3)n1 (single isomer, unassigned) [Compound 291]
0.0031 | 0.0123 | – | COc1c(Nc2nccc(-c3cnc4c(c3)C(C)(CO)CN4)n2)cc(Cl)cc1N1CCOCC1 (stereo not drawn) [Compound 307]
0.0012 | 0.0042 | – | COCCN1CCC(c2cc(OC)c(Nc3nccc(-c4cnc5c(c4)C(C)(CO)CN5)n3)cc2Cl)CC1 (stereo not drawn) [Compound 319]
0.0276 | 0.0457 | – | COc1cc(-c2cncn2C)ccc1Nc1nccc(-c2cnc3c(c2)C(C)(CO)CN3)n1 (stereo not drawn) [Compound 170]
~3.09 | 1.86 | – | COc1ccc(N2CCOCC2)cc1Nc1nccc(-c2cnc3c(c2)C(C)(CO)CN3)n1 (stereo not drawn) [Compound 241]
0.0015 | 0.0049 | – | CCN1CCN(c2cc(OC)c(Nc3nccc(-c4cnc5c(c4)C(C)(CO)CN5)n3)cc2C)CC1 (stereo not drawn) [Compound 318]

IC50 [1] [µM] | IC50 [2] [µM] | IC50 [3] [µM] | Compound
0.0191 | – | – | CCC1(CC#N)CNc2ncc(-c3ccnc(Nc4ccc(C(=O)NC5CCOCC5)cc4OC)n3)cc21 (stereo not drawn) [Compound 154]
~0.027 | – | – | COc1cc(-n2cccn2)ccc1Nc1nccc(-c2cnc3c(c2)C(C)(CO)CN3)n1 (stereo not drawn) [Compound 191]
0.0631 | – | – | COc1cc(C(=O)N2CCCCC2)ccc1Nc1nccc(-c2cnc3c(c2)C(C)(CO)CN3)n1 (single isomer, unassigned) [Compound 157]
0.0389 | 0.0617 | – | [2H]C([2H])([2H])c1ccccc1Nc1nccc(-c2cnc3c(c2)C(C)(CO)CN3)n1 (stereo not drawn) [Compound 234]
0.0013 | 0.0039 | – | COc1cc(N2CC(OC)C2)c(Cl)cc1Nc1nccc(-c2cnc3c(c2)C(C)(CO)CN3)n1 (stereo not drawn) [Compound 287]
0.0066 | 0.0074 | – | COc1cc(Cl)c(C)c(Nc2nccc(-c3cnc4c(c3)C(C)(CO)CN4)n2)c1 (stereo not drawn) [Compound 230]
0.0031 | 0.0041 | – | COc1cc(OCCN(C)C)c(Cl)cc1Nc1nccc(-c2cnc3c(c2)C(C)(CO)CN3)n1 (stereo not drawn) [Compound 314]
0.0575 | 0.112 | – | COc1cc(N2CC(OC)C2)c(F)cc1Nc1nccc(-c2cnc3c(c2)C(C)(CO)CN3)n1 (single isomer, unassigned) [Compound 288]
0.0427 | 0.102 | – | COc1cc(N2CCOCC2)c(F)cc1Nc1nccc(-c2cnc3c(c2)C(C)(CO)CN3)n1 (single isomer, unassigned) [Compound 253]
1.23 | 0.912 | – | COc1cccc(F)c1Nc1nccc(-c2cnc3c(c2)C(C)(CO)CN3)n1 (stereo not drawn) [Compound 250]
0.0182 | – | – | COc1cc(N2CCN(C)CC2)ccc1Nc1nccc(-c2cnc3c(c2)C(C)(CO)CN3)n1 (stereo not drawn) [Compound 187]
0.204 | – | – | CC1(CO)CNc2ncc(-c3ccnc(Nc4ccccc4C(F)(F)F)n3)cc21 (stereo not drawn) [Compound 180]
0.0646 | 0.123 | – | COCCOc1cc(N2CCOCC2)c(C#N)cc1Nc1nccc(-c2cnc3c(c2)C(C)(CO)CN3)n1 (stereo not drawn) [Compound 369]
– | – | 0.024 | COc1cc(C(=O)NC2CCOCC2)ccc1Nc1ncc(Cl)c(-c2cnc3c(c2)C(C)(CO)CN3)n1 (single isomer, unassigned) [Compound 351]
0.0036 | – | – | COc1cc(N2CCC(O)C2)c(Cl)cc1Nc1nccc(-c2cnc3c(c2)C(C)(CO)CN3)n1 (stereo not drawn) [Compound 325]
0.0034 | 0.003 | – | Cc1cc(N2CCOCC2)c(Cl)cc1Nc1nccc(-c2cnc3c(c2)C(C)(CO)CN3)n1 (single isomer, unassigned) [Compound 257]
6.76 | > 10 | – | COc1cccc(Cl)c1Nc1nccc(-c2cnc3c(c2)C(C)(CO)CN3)n1 (stereo not drawn) [Compound 251]
0.001 | 0.0027 | – | COc1cc(OCCN2CCN(C)CC2)c(Cl)cc1Nc1nccc(-c2cnc3c(c2)C(C)(CO)CN3)n1 (stereo not drawn) [Compound 320]
0.0022 | – | – | COc1cc(N2CCC(C)(O)CC2)c(Cl)cc1Nc1nccc(-c2cnc3c(c2)C(C)(CO)CN3)n1 (stereo not drawn) [Compound 333]
0.0224 | – | – | Cc1ccccc1Nc1nccc(-c2cnc3c(c2)C(C)(CO)CN3)n1 (stereo not drawn) [Compound 179]

IC50 [1] [µM] | IC50 [2] [µM] | IC50 [3] [µM] | Compound
0.0011 | 0.0074 | – | COc1cc(N2CC3(CCOC3)C2)c(Cl)cc1Nc1nccc(-c2cnc3c(c2)C(C)(CO)CN3)n1 (stereo not drawn) [Compound 284]
0.0023 | 0.0063 | – | COc1cc(N2CCC(OC)CC2)c(Cl)cc1Nc1nccc(-c2cnc3c(c2)C(C)(CO)CN3)n1 (stereo not drawn) [Compound 327]
0.0072 | 0.0229 | – | COCC(C)(C)CNc1cc(OC)c(Nc2nccc(-c3cnc4c(c3)C(C)(CO)CN4)n2)cc1F (stereo not drawn) [Compound 323]
0.0112 | – | – | CC1(CO)CNc2ncc(-c3ccnc(Nc4cc(F)ccc4Cl)n3)cc21 (stereo not drawn) [Compound 197]
0.01 | 0.012 | – | CCOC1CN(c2cc(OC)c(Nc3nccc(-c4cnc5c(c4)C(C)(CO)CN5)n3)cc2Cl)C1 (stereo not drawn) [Compound 357]
0.11 | – | – | COc1ccc(C(C)C)cc1Nc1nccc(-c2cnc3c(c2)C(C)(CO)CN3)n1 (stereo not drawn) [Compound 209]
– | – | 0.0074 | COc1cc(N2CC3(CCOCC3)C2)c(Cl)cc1Nc1ncc(F)c(-c2cnc3c(c2)C(C)(CO)CN3)n1 (stereo not drawn) [Compound 346]
0.0182 | – | – | COCc1ccc(Nc2nccc(-c3cnc4c(c3)C(C)(CO)CN4)n2)c(OC)c1 (stereo not drawn) [Compound 166]
0.0257 | 0.0912 | – | Cc1cc(N2CCOCC2)c(Cl)cc1Nc1nccc(-c2cnc3c(c2)C(C)(CO)CN3)n1 (single isomer, unassigned) [Compound 258]
0.049 | – | – | COc1ccc(C2CC2)cc1Nc1nccc(-c2cnc3c(c2)C(C)(CO)CN3)n1 (stereo not drawn) [Compound 195]
0.0229 | – | – | COc1cc(Nc2nccc(-c3cnc4c(c3)C(C)(CO)CN4)n2)cc(C(F)(F)F)c1 (stereo not drawn) [Compound 193]
0.0036 | 0.0069 | – | CC1(CO)CNc2ncc(-c3ccnc(Nc4cc(Cl)c(N5CCOCC5)cc4Cl)n3)cc21 (stereo not drawn) [Compound 362]
0.0015 | – | – | CCN1CCN(C(=O)c2cc(OC)c(Nc3nccc(-c4cnc5c(c4)C(C)(CO)CN5)n3)cc2Cl)CC1 (stereo not drawn) [Compound 328]
0.0058 | 0.0214 | – | COc1cc(N2CC(OC)C2)c(F)cc1Nc1nccc(-c2cnc3c(c2)C(C)(CO)CN3)n1 (stereo not drawn) [Compound 270]
0.0069 | – | – | COc1cc(Cn2cccn2)ccc1Nc1nccc(-c2cnc3c(c2)C(C)(CO)CN3)n1 (stereo not drawn) [Compound 189]
0.038 | – | – | Cc1c(Cl)cccc1Nc1nccc(-c2cnc3c(c2)C(C)(CO)CN3)n1 (stereo not drawn) [Compound 224]
0.977 | 1.62 | – | CN(C)CCOc1cc(N2CCOCC2)c(F)cc1Nc1nccc(-c2cnc3c(c2)C(C)(CO)CN3)n1 (stereo not drawn) [Compound 370]
0.0102 | 0.0132 | – | COc1cccc(Nc2nccc(-c3cnc4c(c3)C(C)(CO)CN4)n2)c1Cl (stereo not drawn) [Compound 225]
